Results taken from ChEMBL document CHEMBL3046274, “Toxicity of imidacloprid to developmental stages of Rhynchophorus ferrugineus (Curculionidae: Coleoptera): Laboratory and field tests” (Crop Prot, 2006).
The source made the active and inactive calls. No cut-off for these calls is given here.

Experiments:
[1] = test system: Rhynchophorus ferrugineus; assay: Pesticidal activity against adult Rhynchophorus ferrugineus (red palm weevil) assessed as mortality at 100 ppm administered topically at 36 hr post-treatment; assay type: functional
[2] = test system: Rhynchophorus ferrugineus; assay: Pesticidal activity against Rhynchophorus ferrugineus (red palm weevil) cocoon assessed as mortality at 2 ppm administered by dipping for 3 min measured at 114 hr post-treatment relative to control; assay type: functional
[3] = test system: Rhynchophorus ferrugineus; assay: Pesticidal activity Rhynchophorus ferrugineus (red palm weevil) larvae assessed as time required after hatching for 100% mortality at 1.5 ml/l administered topically measured up to 14 days relative to control; assay type: functional
[4] = test system: Rhynchophorus ferrugineus; assay: Contact toxicity against Rhynchophorus ferrugineus (red palm weevil) adults assessed as time required for 100% mortality at 3.5 ml/l for 5 min; assay type: functional
[5] = test system: Rhynchophorus ferrugineus; assay: Contact toxicity against Rhynchophorus ferrugineus (red palm weevil) adults assessed as time required for 50% mortality at 3.5 ml/l for 2 min; assay type: functional
[6] = test system: Rhynchophorus ferrugineus; assay: Pesticidal activity against Rhynchophorus ferrugineus (red palm weevil) cocoon assessed as mortality of emerged adult at low concentration administered by dipping for 3 min measured up to 1 week after emergence; assay type: functional, organism-based
[7] = test system: Rhynchophorus ferrugineus; assay: Pesticidal activity against Rhynchophorus ferrugineus (red palm weevil) larvae assessed as mortality at 1 ppm, po at 18 hr post-treatment relative to control; assay type: functional
[8] = test system: Rhynchophorus ferrugineus; assay: Pesticidal activity against Rhynchophorus ferrugineus (red palm weevil) cocoon assessed as mortality at 20 ppm administered by dipping for 3 min measured at 114 hr post-treatment relative to control; assay type: functional
[9] = test system: Rhynchophorus ferrugineus; assay: Pesticidal activity against Rhynchophorus ferrugineus (red palm weevil) larvae assessed as mortality at 2 ppm, po at 18 hr post-treatment relative to control; assay type: functional
[10] = test system: Rhynchophorus ferrugineus; assay: Pesticidal activity against adult Rhynchophorus ferrugineus (red palm weevil) assessed as mortality at 0.5 ppm, po at 48 hr post-treatment relative to control; assay type: functional
[11] = test system: Rhynchophorus ferrugineus; assay: Pesticidal activity against adult Rhynchophorus ferrugineus (red palm weevil) assessed as mortality at 500 ppm administered topically at 18 hr post-treatment; assay type: functional
[12] = test system: Rhynchophorus ferrugineus; assay: Contact toxicity against Rhynchophorus ferrugineus (red palm weevil) adults assessed as time required for 50% mortality at 3.5 ml/l for 5 min; assay type: functional
[13] = test system: Rhynchophorus ferrugineus; assay: Pesticidal activity against Rhynchophorus ferrugineus (red palm weevil) cocoon assessed as mortality at 1.5 ppm administered by dipping for 3 min measured at 48 hr post-treatment relative to control; assay type: functional
[14] = test system: Rhynchophorus ferrugineus; assay: Pesticidal activity against adult Rhynchophorus ferrugineus (red palm weevil) assessed as mortality at 1.5 ppm, po at 114 hr post-treatment relative to control; assay type: functional
[15] = test system: Rhynchophorus ferrugineus; assay: Pesticidal activity against Rhynchophorus ferrugineus (red palm weevil) larvae assessed as mortality at 1000 ppm administered topically at 48 hr post-treatment; assay type: functional
[16] = test system: Rhynchophorus ferrugineus; assay: Pesticidal activity against Rhynchophorus ferrugineus (red palm weevil) cocoon assessed as mortality at 20 ppm administered by dipping for 3 min measured at 90 hr post-treatment relative to control; assay type: functional
[17] = test system: Rhynchophorus ferrugineus; assay: Pesticidal activity against Rhynchophorus ferrugineus (red palm weevil) larvae assessed as mortality at 100 ppm administered topically at 48 hr post-treatment; assay type: functional
[18] = test system: Rhynchophorus ferrugineus; assay: Pesticidal activity against Rhynchophorus ferrugineus (red palm weevil) larvae assessed as mortality at 500 ppm administered topically at 36 hr post-treatment; assay type: functional
[19] = test system: Rhynchophorus ferrugineus; assay: Pesticidal activity against adult Rhynchophorus ferrugineus (red palm weevil) assessed as mortality at 0.5 ppm, po at 114 hr post-treatment relative to control; assay type: functional
[20] = test system: Rhynchophorus ferrugineus; assay: Pesticidal activity against Rhynchophorus ferrugineus (red palm weevil) larvae assessed as mortality at 4 ppm, po at 114 hr post-treatment relative to control; assay type: functional
[21] = test system: Rhynchophorus ferrugineus; assay: Pesticidal activity against Rhynchophorus ferrugineus (red palm weevil) larvae assessed as mortality at 4 ppm, po at 72 hr post-treatment relative to control; assay type: functional
[22] = test system: Rhynchophorus ferrugineus; assay: Contact toxicity against Rhynchophorus ferrugineus (red palm weevil) adults assessed as time required for 50% mortality at 2.5 ml/l for 2 min; assay type: functional
[23] = test system: Rhynchophorus ferrugineus; assay: Pesticidal activity against Rhynchophorus ferrugineus (red palm weevil) cocoons assessed as time required for total mortality at 3.5 ml/l administered by dipping for 5 secs; assay type: functional
[24] = test system: Rhynchophorus ferrugineus; assay: Contact toxicity against Rhynchophorus ferrugineus (red palm weevil) adults assessed as time required for 100% mortality at 1.5 ml/l for 5 min; assay type: functional
[25] = test system: Rhynchophorus ferrugineus; assay: Pesticidal activity against Rhynchophorus ferrugineus (red palm weevil) larvae assessed as mortality at 1.5 ppm, po at 18 hr post-treatment relative to control; assay type: functional
[26] = test system: Rhynchophorus ferrugineus; assay: Pesticidal activity against Rhynchophorus ferrugineus (red palm weevil) larvae assessed as mortality at 300 ppm administered topically at 48 hr post-treatment; assay type: functional
[27] = test system: Rhynchophorus ferrugineus; assay: Contact toxicity against Rhynchophorus ferrugineus (red palm weevil) adults assessed as time required for 100% reversible knockdown at 1.5 ml/l for 2 min; assay type: functional
[28] = test system: Rhynchophorus ferrugineus; assay: Pesticidal activity against adult Rhynchophorus ferrugineus (red palm weevil) assessed as mortality at 300 ppm administered topically at 18 hr post-treatment; assay type: functional
[29] = test system: Rhynchophorus ferrugineus; assay: Pesticidal activity against Rhynchophorus ferrugineus (red palm weevil) larvae assessed as mortality at 2 ppm, po at 24 hr post-treatment relative to control; assay type: functional
[30] = test system: Rhynchophorus ferrugineus; assay: Pesticidal activity against Rhynchophorus ferrugineus (red palm weevil) cocoons assessed as time required for total mortality at 2.5 ml/l administered by dipping for 5 secs; assay type: functional
[31] = test system: Rhynchophorus ferrugineus; assay: Pesticidal activity against Rhynchophorus ferrugineus (red palm weevil) cocoons assessed as time required for total mortality at 1.5 ml/l administered by dipping for 10 secs; assay type: functional
[32] = test system: Rhynchophorus ferrugineus; assay: Pesticidal activity against adult Rhynchophorus ferrugineus (red palm weevil) assessed as time required for reversible knockdown at 3.5 ml/l administered topically; assay type: functional
[33] = test system: Rhynchophorus ferrugineus; assay: Contact toxicity against Rhynchophorus ferrugineus (red palm weevil) adults assessed as time required for 100% reversible knockdown at 2.5 ml/l for 5 min; assay type: functional
[34] = test system: Rhynchophorus ferrugineus; assay: Contact toxicity against Rhynchophorus ferrugineus (red palm weevil) adults assessed as time required for 50% reversible knockdown at 3.5 ml/l for 2 min; assay type: functional
[35] = test system: Rhynchophorus ferrugineus; assay: Pesticidal activity against Rhynchophorus ferrugineus (red palm weevil) cocoons assessed as time required for total mortality at 2.5 ml/l administered by dipping for 30 secs; assay type: functional
[36] = test system: Rhynchophorus ferrugineus; assay: Pesticidal activity against Rhynchophorus ferrugineus (red palm weevil) cocoon assessed as mortality at 1.5 ppm administered by dipping for 3 min measured at 72 hr post-treatment relative to control; assay type: functional
[37] = test system: Rhynchophorus ferrugineus; assay: Pesticidal activity against Rhynchophorus ferrugineus (red palm weevil) cocoon assessed as mortality at 1 ppm administered by dipping for 3 min measured at 18 hr post-treatment relative to control; assay type: functional
[38] = test system: Rhynchophorus ferrugineus; assay: Pesticidal activity against adult Rhynchophorus ferrugineus (red palm weevil) assessed as mortality at 0.5 ppm, po at 18 hr post-treatment relative to control; assay type: functional
[39] = test system: Rhynchophorus ferrugineus; assay: Pesticidal activity against adult Rhynchophorus ferrugineus (red palm weevil) assessed as mortality at 1.5 ppm, po at 90 hr post-treatment relative to control; assay type: functional
[40] = test system: Rhynchophorus ferrugineus; assay: Pesticidal activity against adult Rhynchophorus ferrugineus (red palm weevil) assessed as mortality at 1 ppm, po at 18 hr post-treatment relative to control; assay type: functional
[41] = test system: Rhynchophorus ferrugineus; assay: Pesticidal activity against Rhynchophorus ferrugineus (red palm weevil) cocoon assessed as mortality at 20 ppm administered by dipping for 3 min measured at 24 hr post-treatment relative to control; assay type: functional
[42] = test system: Rhynchophorus ferrugineus; assay: Pesticidal activity against Rhynchophorus ferrugineus (red palm weevil) cocoons assessed as time required for total mortality at 3.5 ml/l administered by dipping for 10 secs; assay type: functional

## O=[N+]([O-])/N=C1\NCCN1Cc1ccc(Cl)nc1 [IMIDACLOPRID]
[1]
  Activity: 38.9%
[2]
  Activity: 72.2%
[3]
  Time: 6 days
[4]
  Time: 4.2 days
[5]
  Time: 4.1 days
[6]
  Activity: inactive
[7]
  Activity: 0%
[8]
  Activity: 100%
[9]
  Activity: 72.2%
[10]
  Activity: 38.9%
[11]
  Activity: 66.7%
[12]
  Time: 2.2 days
[13]
  Activity: 0%
[14]
  Activity: 100%
[15]
  Activity: 100%
[16]
  Activity: 72.2%
[17]
  Activity: 0%
[18]
  Activity: 38.9%
[19]
  Activity: 72.2%
[20]
  Activity: 100%
[21]
  Activity: 100%
[22]
  Time: 10.1 days
[23]
  Time: 5.9 days
[24]
  Time: 8.1 days
[25]
  Activity: 72.2%
[26]
  Activity: 0%
[27]
  Time: 9 days
[28]
  Activity: 72.2%
[29]
  Activity: 100%
[30]
  Time: 9.5 days
[31]
  Time: 10 days
[32]
  Time: 1 days
[33]
  Time: 2.2 days
[34]
  Time: 1.1 days
[35]
  Time: 9.2 days
[36]
  Activity: 0%
[37]
  Activity: 0%
[38]
  Activity: 0%
[39]
  Activity: 100%
[40]
  Activity: 38.9%
[41]
  Activity: 0%
[42]
  Time: 6 days
